Common to all, as to assay type: functional, organism-based
The test system of assay [1] is Rattus norvegicus. Nature of the assay: Ratio of ovulated rats to total number of rats determined in a anti-ovulatory assay by administering 2.5 microg of compound; 0/8.
For assay [2], the system named is Rattus norvegicus. The assay is described as follows: Ratio of ovulated rats to total number of rats determined in a anti-ovulatory assay by administering 1 ug of compound; 2/8.
The subject of assay [3] is Rattus norvegicus. Nature of the assay: Ratio of ovulated rats to total number of rats determined in a anti-ovulatory assay by administering 5 microg of compound; 1/8.
For assay [4], the system named is Rattus norvegicus. The assay is described as follows: Ratio of ovulated rats to total number of rats determined in a anti-ovulatory assay by administering 2.5 microg of compound; 2/8.
For assay [5], the system named is Rattus norvegicus. Nature of the assay: Ratio of ovulated rats to total number of rats determined in a anti-ovulatory assay by administering 5 microg of compound; 2/8.
Assay [6] has as its system Rattus norvegicus. The assay is described as follows: Ratio of ovulated rats to total number of rats determined in a anti-ovulatory assay by administering 5 microg of compound; 0/8.
The test system of assay [7] is Rattus norvegicus. The assay is described as follows: Ratio of ovulated rats to total number of rats determined in a anti-ovulatory assay by administering 2.5 microg of compound; 5/5.
In assay [8] the test system is Rattus norvegicus. The assay is described as follows: Ratio of ovulated rats to total number of rats determined in a anti-ovulatory assay by administering 250 microg of compound; 2/2.
In assay [9] the test system is Rattus norvegicus. The assay is described as follows: Ratio of ovulated rats to total number of rats determined in a anti-ovulatory assay by administering 1 microg of compound; 5/8.
Assay [10] concerns Rattus norvegicus. Nature of the assay: Ratio of ovulated rats to total number of rats determined in a anti-ovulatory assay by administering 0.5 microg of compound; 9/11.
In assay [11] the test system is Rattus norvegicus. The assay is described as follows: Ratio of ovulated rats to total number of rats determined in a anti-ovulatory assay by administering 1 microg of compound; 6/17.
For assay [12], the system named is Rattus norvegicus. The assay is described as follows: Ratio of ovulated rats to total number of rats determined in a anti-ovulatory assay by administering 10 microg of compound; 8/8.
Assay [13] relates to Rattus norvegicus. Nature of the assay: Ratio of ovulated rats to total number of rats determined in a anti-ovulatory assay by administering 25 microg of compound; 4/8.
Assay [14] relates to Rattus norvegicus. Nature of the assay: Ratio of ovulated rats to total number of rats determined in a anti-ovulatory assay by administering 250 microg of compound; 6/8.
Assay [15] concerns Rattus norvegicus. Nature of the assay: Ratio of ovulated rats to total number of rats determined in a anti-ovulatory assay by administering 10 microg of compound; 7/8.
The subject of assay [16] is Rattus norvegicus. Nature of the assay: Ratio of ovulated rats to total number of rats determined in a anti-ovulatory assay by administering 25 microg of compound; 0/8.
The test system of assay [17] is Rattus norvegicus. The assay is described as follows: Ratio of ovulated rats to total number of rats determined in a anti-ovulatory assay by administering 5 microg of compound; 5/8.
Assay [18] has as its system Rattus norvegicus. Nature of the assay: Ratio of ovulated rats to total number of rats determined in a anti-ovulatory assay by administering 10 microg of compound; 0/8.
Assay [19] relates to Rattus norvegicus. Nature of the assay: Ratio of ovulated rats to total number of rats determined in a anti-ovulatory assay by administering 10 microg of compound; 1/8.
In assay [20] the test system is Rattus norvegicus. Nature of the assay: Ratio of ovulated rats to total number of rats determined in a anti-ovulatory assay by administering 2.5 microg of compound; 8/8.
The subject of assay [21] is Rattus norvegicus. Nature of the assay: Ratio of ovulated rats to total number of rats determined in a anti-ovulatory assay by administering 1 microg of compound; 3/8.
The subject of assay [22] is Rattus norvegicus. The assay is described as follows: Ratio of ovulated rats to total number of rats determined in a anti-ovulatory assay by administering 2.5 microg of compound; 0/4.
Assay [23] concerns Rattus norvegicus. The assay is described as follows: Ratio of ovulated rats to total number of rats determined in a anti-ovulatory assay by administering 1 microg of compound; 3/3.

The record followed here is ChEMBL document CHEMBL1130231, “Betidamino acid scan of the GnRH antagonist acyline” (J Med Chem, 1997).

Activity calls are given as the source filed them. No cut-off for these calls is given here.

In the case of `CC(=O)Nc1ccc(C[C@H](NC(=O)[C@H](CO)NC(=O)[C@@H](Cc2cccnc2)NC(=O)[C@@H](Cc2ccc(Cl)cc2)NC(=O)[C@@H](NC(C)=O)N(C)C(=O)c2ccc3ccccc3c2)C(=O)N[C@H](Cc2ccc(NC(C)=O)cc2)C(=O)N[C@@H](CC(C)C)C(=O)N[C@@H](CCCCNC(C)C)C(=O)N2CCC[C@@H]2C(=O)N[C@H](C)C(N)=O)cc1` (single isomer, unassigned), in [1], the ov. rat/total result is “Active”. The ov. rat/total entry in [2] is “Partially active”. Turning to `CC(=O)Nc1ccc(C[C@H](NC(=O)[C@H](CO)NC(=O)[C@@H](Cc2cccnc2)NC(=O)[C@@H](Cc2ccc(Cl)cc2)NC(=O)[C@@H](Cc2ccc3ccccc3c2)NC(C)=O)C(=O)N[C@H](Cc2ccc(NC(C)=O)cc2)C(=O)N[C@H](C(=O)N[C@@H](CCCCNC(C)C)C(=O)N2CCC[C@@H]2C(=O)N[C@H](C)C(N)=O)N(C)C(C)=O)cc1`, the ov. rat/total entry in [3] was “Active”. In addition, the ov. rat/total result in assay [4] was “Partially active”. As for `CC(=O)Nc1ccc(C[C@H](NC(=O)[C@@H](NC(=O)CO)NC(=O)[C@@H](Cc2cccnc2)NC(=O)[C@@H](Cc2ccc(Cl)cc2)NC(=O)[C@@H](Cc2ccc3ccccc3c2)NC(C)=O)C(=O)N[C@H](Cc2ccc(NC(C)=O)cc2)C(=O)N[C@@H](CC(C)C)C(=O)N[C@@H](CCCCNC(C)C)C(=O)N2CCC[C@@H]2C(=O)N[C@H](C)C(N)=O)cc1` (single isomer, unassigned), the ov. rat/total result in assay [5] was “Partially active”. Turning to `CC(=O)Nc1ccc(C[C@H](NC(=O)[C@H](CO)NC(=O)[C@@H](Cc2cccnc2)NC(=O)[C@@H](Cc2ccc(Cl)cc2)NC(=O)[C@H](NC(C)=O)NC(=O)c2ccc3ccccc3c2)C(=O)N[C@H](Cc2ccc(NC(C)=O)cc2)C(=O)N[C@@H](CC(C)C)C(=O)N[C@@H](CCCCNC(C)C)C(=O)N2CCC[C@@H]2C(=O)N[C@H](C)C(N)=O)cc1`, the ov. rat/total result in assay [6] is “Active”. The ov. rat/total result in assay [7] was “inactive”. As to `CC(=O)Nc1ccc(C[C@H](NC(=O)[C@H](CO)NC(=O)[C@@H](Cc2cccnc2)NC(=O)[C@@H](NC(=O)c2cnccn2)NC(=O)[C@@H](Cc2ccc3ccccc3c2)NC(C)=O)C(=O)N[C@H](Cc2ccc(NC(C)=O)cc2)C(=O)N[C@@H](CC(C)C)C(=O)N[C@@H](CCCCNC(C)C)C(=O)N2CCC[C@@H]2C(=O)N[C@H](C)C(N)=O)cc1`, in assay [8], the ov. rat/total entry was “inactive”. As for `CC(=O)Nc1ccc(C[C@@H](NC(=O)[C@H](NC(=O)[C@H](CO)NC(=O)[C@@H](Cc2cccnc2)NC(=O)[C@@H](Cc2ccc(Cl)cc2)NC(=O)[C@@H](Cc2ccc3ccccc3c2)NC(C)=O)N(C)C(=O)c2ccc(NC(C)=O)cc2)C(=O)N[C@@H](CC(C)C)C(=O)N[C@@H](CCCCNC(C)C)C(=O)N2CCC[C@@H]2C(=O)N[C@H](C)C(N)=O)cc1`, the ov. rat/total result in assay [1] is “Active”. For the same molecule, in assay [9], the ov. rat/total result is “Partially active”. As to `CC(=O)Nc1ccc(C[C@H](NC(=O)[C@H](CO)NC(=O)[C@@H](Cc2cccnc2)NC(=O)[C@@H](Cc2ccc(Cl)cc2)NC(=O)[C@@H](Cc2ccc3ccccc3c2)NC(C)=O)C(=O)N[C@H](Cc2ccc(NC(C)=O)cc2)C(=O)N[C@@H](CC(C)C)C(=O)N[C@@H](CCCCNC(C)C)C(=O)N2CCC[C@@H]2C(=O)N[C@H](NC=O)C(N)=O)cc1` (single isomer, unassigned), in [10], the ov. rat/total result was “inactive”. Moreover, the ov. rat/total entry in assay [11] is “Partially active”. Consider `CC(=O)Nc1ccc(C[C@H](NC(=O)[C@H](CO)NC(=O)[C@@H](Cc2cccnc2)NC(=O)[C@@H](Cc2ccc(Cl)cc2)NC(=O)[C@@H](Cc2ccc3ccccc3c2)NC(C)=O)C(=O)N[C@H](C(=O)N[C@@H](CC(C)C)C(=O)N[C@@H](CCCCNC(C)C)C(=O)N2CCC[C@@H]2C(=O)N[C@H](C)C(N)=O)N(C)C(=O)c2ccc(NC(C)=O)cc2)cc1` (mixture of isomers), for which the ov. rat/total result in assay [12] is “inactive”. Also, the ov. rat/total entry in assay [13] is “Partially active”.

On to `CC(=O)Nc1ccc(C[C@H](NC(=O)[C@H](CO)NC(=O)[C@@H](Cc2cccnc2)NC(=O)[C@H](NC(=O)c2c[nH]nc2N)NC(=O)[C@@H](Cc2ccc3ccccc3c2)NC(C)=O)C(=O)N[C@H](Cc2ccc(NC(C)=O)cc2)C(=O)N[C@@H](CC(C)C)C(=O)N[C@@H](CCCCNC(C)C)C(=O)N2CCC[C@@H]2C(=O)N[C@H](C)C(N)=O)cc1`, for which the ov. rat/total entry in assay [14] was “inactive”.

As for `CC(=O)Nc1ccc(C[C@H](NC(=O)[C@H](CO)NC(=O)[C@@H](Cc2cccnc2)NC(=O)[C@@H](Cc2ccc(Cl)cc2)NC(=O)[C@H](NC(C)=O)N(C)C(=O)c2ccc3ccccc3c2)C(=O)N[C@H](Cc2ccc(NC(C)=O)cc2)C(=O)N[C@@H](CC(C)C)C(=O)N[C@@H](CCCCNC(C)C)C(=O)N2CCC[C@@H]2C(=O)N[C@H](C)C(N)=O)cc1`, the ov. rat/total result in [15] is “inactive”. The ov. rat/total entry in assay [16] was “Active”. In the case of `CC(=O)Nc1ccc(C[C@H](NC(=O)[C@H](CO)NC(=O)[C@@H](Cc2cccnc2)NC(=O)[C@@H](Cc2ccc(Cl)cc2)NC(=O)[C@@H](Cc2ccc3ccccc3c2)NC(C)=O)C(=O)N[C@H](Cc2ccc(NC(C)=O)cc2)C(=O)N[C@@H](NC(C)=O)C(=O)N[C@@H](CCCCNC(C)C)C(=O)N2CCC[C@@H]2C(=O)N[C@H](C)C(N)=O)cc1`, the ov. rat/total entry in [17] was “Partially active”. Also, in [18], the ov. rat/total entry was “Active”. Take `CC(=O)Nc1ccc(C[C@H](NC(=O)[C@H](NC(=O)[C@@H](Cc2cccnc2)NC(=O)[C@@H](Cc2ccc(Cl)cc2)NC(=O)[C@@H](Cc2ccc3ccccc3c2)NC(C)=O)N(C)C=O)C(=O)N[C@H](Cc2ccc(NC(C)=O)cc2)C(=O)N[C@@H](CC(C)C)C(=O)N[C@@H](CCCCNC(C)C)C(=O)N2CCC[C@@H]2C(=O)N[C@H](C)C(N)=O)cc1` (single isomer, unassigned): in [19], the ov. rat/total entry is “Active”. The ov. rat/total result in assay [20] was “inactive”. Turning to `CC(=O)Nc1ccc(C[C@@H](NC(=O)[C@@H](NC(=O)c2ccc(NC(C)=O)cc2)NC(=O)[C@H](CO)NC(=O)[C@@H](Cc2cccnc2)NC(=O)[C@@H](Cc2ccc(Cl)cc2)NC(=O)[C@@H](Cc2ccc3ccccc3c2)NC(C)=O)C(=O)N[C@@H](CC(C)C)C(=O)N[C@@H](CCCCNC(C)C)C(=O)N2CCC[C@@H]2C(=O)N[C@H](C)C(N)=O)cc1`, the ov. rat/total entry in assay [5] was “Partially active”. For the molecule `CC(=O)Nc1ccc(C[C@@H](NC(=O)[C@H](NC(=O)c2ccc(O)cc2)NC(=O)[C@H](CO)NC(=O)[C@@H](Cc2cccnc2)NC(=O)[C@@H](Cc2ccc(Cl)cc2)NC(=O)[C@@H](Cc2ccc3ccccc3c2)NC(C)=O)C(=O)N[C@@H](CC(C)C)C(=O)N[C@@H](CCCCNC(C)C)C(=O)N2CCC[C@@H]2C(=O)N[C@H](C)C(N)=O)cc1`, the ov. rat/total entry in assay [1] is “Active”. Also, the ov. rat/total entry in assay [9] is “Partially active”.

As for `CC(=O)Nc1ccc(C[C@H](NC(=O)[C@H](CO)NC(=O)[C@@H](Cc2cccnc2)NC(=O)[C@@H](Cc2ccc(Cl)cc2)NC(=O)[C@@H](Cc2ccc3ccccc3c2)NC(C)=O)C(=O)N[C@H](Cc2ccc(NC(C)=O)cc2)C(=O)N[C@@H](CC(C)C)C(=O)N[C@@H](CCCCNC(C)C)C(=O)N2CCC[C@@H]2C(=O)N[C@H](N)C(N)=O)cc1`, in assay [1], the ov. rat/total result was “Active”. For the same molecule, the ov. rat/total result in [21] is “Partially active”.

Turning to `CC(=O)Nc1ccc(C[C@H](NC(=O)[C@H](CO)NC(=O)[C@@H](Cc2cccnc2)NC(=O)[C@@H](NC(=O)[C@@H](Cc2ccc3ccccc3c2)NC(C)=O)N(C)C(=O)c2ccc(Cl)cc2)C(=O)N[C@H](Cc2ccc(NC(C)=O)cc2)C(=O)N[C@@H](CC(C)C)C(=O)N[C@@H](CCCCNC(C)C)C(=O)N2CCC[C@@H]2C(=O)N[C@H](C)C(N)=O)cc1` (mixture of isomers), the ov. rat/total entry in assay [14] is “inactive”. With `CC(=O)Nc1ccc(C[C@H](NC(=O)[C@H](CO)NC(=O)[C@@H](Cc2cccnc2)NC(=O)[C@@H](Cc2ccc(Cl)cc2)NC(=O)[C@@H](Cc2ccc3ccccc3c2)NC(C)=O)C(=O)N[C@H](Cc2ccc(NC(C)=O)cc2)C(=O)N[C@@H](CC(C)C)C(=O)N[C@@H](CCCCNC(C)C)C(=O)N2CCC[C@@H]2C(=O)N[C@@H](NC=O)C(N)=O)cc1` (single isomer, unassigned), the ov. rat/total result in assay [22] is “Active”. The ov. rat/total entry in assay [23] is “inactive”.
